{"source": "patent US20240400521A1", "about": "“QUINAZOLINE COMPOUND, COMPOSITION, AND APPLICATION THEREOF” (BEIJING SCITECH-MQ PHARMACEUTICALS LIMITED, priority 2021, published 2024)", "key": {"[1]": {"assay": "Pharmacokinetics in SD rats after single oral and intravenous administration", "assay_type": "in vivo", "settings": "rat; for concentration at 0 hr: time point 0 hr; for concentration at 0.25 hr: time point 0.25 hr; for concentration at 0.5 hr: time point 0.5 hr; for concentration at 1 hr: time point 1 hr; for concentration at 2 hr: time point 2 hr; for concentration at 4 hr: time point 4 hr; for concentration at 7 hr: time point 7 hr", "method": "(§1) In this assay, the pharmacokinetic characteristics and ability to penetrate the blood-brain barrier of the compounds of the present application were assayed after administration of some of the compounds of the present application to SD rats by single oral administration and intravenous injection.\n(§2) • 1. Intravenous (IV) injection group: an appropriate amount of the assay compound was weighed, and completely dissolved in an appropriate volume of vehicle (DMSO/Solutol/H2O=5/10/85 V/V/V with 2 times mole of HCl). The mixture was stirred, vortexed and/or sonicated. Once a solution was obtained, the vehicle was gradually added to a final volume to reach the target concentration. The solution was vortexed, and sonicated to obtain a homogeneous solution. The solution was filtered through a 0.22 μm PVDF membrane. • 2. Oral (PO) group: an appropriate amount of the assay compound was weighed, and completely dissolved in an appropriate volume of vehicle (DMSO/Solutol/H2O=5/10/85 V/V/V with 2 times mole of HCl). The mixture was stirred, vortexed and/or sonicated. Once a solution was obtained, the vehicle was gradually added to a final volume to reach the target concentration. The solution was vortexed, and sonicated to obtain a homogeneous solution. (iii) Administration and Sampling of Rats\n(§3) Meanwhile, the IV group was not fasted and the PO group was fasted overnight (>12 hrs) and given food 2 hrs after drug administration. All animals had free access to water. The dosing regimen and pharmacokinetic sampling regimen are given in Table 6 and Table 7 below, respectively.\n(§4) Rats were administered according to the above regimen, and blood and brain tissue samples were collected and processed at predetermined time points (collection and processing were performed according to conventional methods in the art).\n(§5) Brains were weighed and homogenized by adding 4-fold homogenizing solution (acetonitrile/water=1/1). Six times volume of acetonitrile was added respectively to the whole blood samples and brain homogenate. The mixture was vortexed for 1 min and then centrifuged at 4° C., 4500 rpm for 15 min. The supernatant was diluted 2-fold with ultra-pure water, and the samples were analyzed by LC/MS.\nPharmacokinetic parameters were calculated using WinNonlin software. The following pharmacokinetic parameters were calculated if appropriate plasma drug concentration-time data were available: CL (clearance); Vd (apparent volume of distribution); T1/2 (elimination half-life time); Cmax (peak concentration); Tmax (time to peak); AUC (area under plasma drug concentration-time curve); MRT (mean retention time); F % (bioavailability)."}, "[2]": {"molecular_target": "Ba/F3 EGFR D770_N771insSVD cells (Homo sapiens, UniProt P00533, DUP768-770, cells depend on it)", "sequence (P00533 with tags, fused parts or gaps DUP768-770)": "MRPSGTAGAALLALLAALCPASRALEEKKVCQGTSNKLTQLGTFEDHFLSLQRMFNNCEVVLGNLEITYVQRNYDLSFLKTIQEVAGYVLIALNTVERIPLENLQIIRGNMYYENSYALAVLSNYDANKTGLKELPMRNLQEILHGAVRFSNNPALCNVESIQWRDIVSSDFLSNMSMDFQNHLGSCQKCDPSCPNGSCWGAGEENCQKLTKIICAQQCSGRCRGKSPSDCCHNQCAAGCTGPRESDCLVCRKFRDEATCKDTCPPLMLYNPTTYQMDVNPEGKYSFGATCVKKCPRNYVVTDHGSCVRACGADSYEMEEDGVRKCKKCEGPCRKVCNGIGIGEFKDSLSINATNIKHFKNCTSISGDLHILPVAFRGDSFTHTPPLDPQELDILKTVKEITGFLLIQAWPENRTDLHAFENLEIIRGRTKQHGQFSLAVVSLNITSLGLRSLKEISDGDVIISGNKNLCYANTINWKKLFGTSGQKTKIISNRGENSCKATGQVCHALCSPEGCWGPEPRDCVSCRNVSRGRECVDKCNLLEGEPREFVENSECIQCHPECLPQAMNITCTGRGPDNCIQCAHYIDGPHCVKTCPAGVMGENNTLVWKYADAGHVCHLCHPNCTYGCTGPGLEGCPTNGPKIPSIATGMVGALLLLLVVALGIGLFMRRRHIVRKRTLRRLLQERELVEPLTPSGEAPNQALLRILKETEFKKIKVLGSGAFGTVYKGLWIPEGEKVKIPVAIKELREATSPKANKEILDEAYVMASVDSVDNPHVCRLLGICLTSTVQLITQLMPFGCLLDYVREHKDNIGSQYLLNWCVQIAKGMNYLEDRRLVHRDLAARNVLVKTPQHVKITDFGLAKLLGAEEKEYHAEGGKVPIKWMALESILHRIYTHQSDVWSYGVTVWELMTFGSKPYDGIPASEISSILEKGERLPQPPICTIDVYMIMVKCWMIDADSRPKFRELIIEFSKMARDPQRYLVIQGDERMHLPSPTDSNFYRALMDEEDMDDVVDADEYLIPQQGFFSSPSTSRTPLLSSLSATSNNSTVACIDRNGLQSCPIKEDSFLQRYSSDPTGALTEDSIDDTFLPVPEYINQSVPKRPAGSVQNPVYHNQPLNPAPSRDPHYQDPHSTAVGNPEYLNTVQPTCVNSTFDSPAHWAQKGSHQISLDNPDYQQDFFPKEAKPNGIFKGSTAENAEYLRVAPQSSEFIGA", "assay": "Inhibition of cell proliferation, CTG method, Ba/F3 EGFR D770_N771insSVD", "assay_type": "cell-based", "settings": "72 hours, read-out: Ba/F3 EGFR D770_N771insSVD IC50"}, "Ba/F3-EGFR-VIII cells": {"molecular_target": "Ba/F3-EGFR-VIII cells (Homo sapiens, UniProt P00533, DELINS30-297G, cells depend on it)", "sequence (P00533 with tags, fused parts or gaps DELINS30-297G)": "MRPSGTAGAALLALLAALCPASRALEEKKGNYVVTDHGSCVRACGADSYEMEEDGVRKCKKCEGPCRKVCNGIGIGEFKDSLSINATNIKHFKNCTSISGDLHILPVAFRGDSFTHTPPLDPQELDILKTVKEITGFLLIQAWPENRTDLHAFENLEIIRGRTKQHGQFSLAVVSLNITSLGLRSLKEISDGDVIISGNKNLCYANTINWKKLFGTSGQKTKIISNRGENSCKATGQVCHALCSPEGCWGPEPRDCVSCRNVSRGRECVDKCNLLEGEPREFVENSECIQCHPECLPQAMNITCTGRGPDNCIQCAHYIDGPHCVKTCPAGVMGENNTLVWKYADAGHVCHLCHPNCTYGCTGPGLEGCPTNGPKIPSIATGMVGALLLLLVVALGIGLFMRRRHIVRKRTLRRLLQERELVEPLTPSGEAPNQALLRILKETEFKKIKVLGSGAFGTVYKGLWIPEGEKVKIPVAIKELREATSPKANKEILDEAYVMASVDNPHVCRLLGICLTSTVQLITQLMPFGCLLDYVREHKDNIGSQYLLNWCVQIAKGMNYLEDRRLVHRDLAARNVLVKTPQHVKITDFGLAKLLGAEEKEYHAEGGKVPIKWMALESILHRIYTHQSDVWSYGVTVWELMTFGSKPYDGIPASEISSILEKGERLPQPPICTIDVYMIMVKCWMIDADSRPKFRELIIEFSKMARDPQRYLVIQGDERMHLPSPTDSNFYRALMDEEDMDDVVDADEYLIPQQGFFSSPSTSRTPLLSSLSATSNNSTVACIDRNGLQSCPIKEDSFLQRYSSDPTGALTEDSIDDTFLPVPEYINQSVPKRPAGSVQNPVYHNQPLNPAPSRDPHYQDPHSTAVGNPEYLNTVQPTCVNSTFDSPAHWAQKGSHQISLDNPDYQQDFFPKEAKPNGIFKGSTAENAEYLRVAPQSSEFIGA", "assay": "Inhibition of cell proliferation, CTG method, Ba/F3-EGFR-VIII", "assay_type": "cell-based", "settings": "72 hours, read-out: Ba/F3 EGFRvIII IC50"}, "[3]": {"assay": "Ability to penetrate the blood-brain barrier: brain and whole blood concentration in SD rats", "assay_type": "in vivo", "settings": "rat", "method": "as §1, §2, §3, §4, §5"}, "[4]": {"settings": "SD, plasma, IV 3 mg/kg, read-out: Plasma drug concentration"}, "[5]": {"settings": "SD, plasma, PO 10 mg/kg, read-out: Plasma drug concentration"}}, "note": "Read-outs that look alike come from different tables or passages of the source.", "data": [{"compound": "COc1c(NC(=O)/C=C/CN(C)C)ccc2ncnc(Nc3cccc(Cl)c3F)c12", "note": "[Example 1, (E)-N-(4-((3-chloro-2-fluorophenyl)amino)-5-methoxyquinazolin-6-yl)-4-(dimethylamino)but-2-enamide]", "values": [{"measurement": "AUC(0-inf)", "setting": "[1]; SD, plasma, IV 3 mg/kg", "result": "0.724 ± 0.105", "unit": "µg·h/mL"}, {"measurement": "AUC(0-t)", "setting": "[1]; SD, plasma, IV 3 mg/kg", "result": "0.709 ± 0.096", "unit": "µg·h/mL"}, {"measurement": "Vd", "setting": "[1]; SD, plasma, IV 3 mg/kg", "result": "8.76 ± 0.67", "unit": "L/kg"}, {"measurement": "half-life", "setting": "[1]; SD, plasma, IV 3 mg/kg", "result": "1.45 ± 0.09", "unit": "h"}, {"measurement": "concentration at 0 hr", "setting": "[1]; [4]", "result": 0, "unit": "µg/mL"}, {"measurement": "concentration at 0.083 hr", "setting": "[1]; SD, plasma, IV 3 mg/kg, time point 0.083 hr, read-out: Plasma drug concentration", "result": "0.888 ± 0.106", "unit": "µg/mL"}, {"measurement": "concentration at 0.25 hr", "setting": "[1]; [4]", "result": "0.494 ± 0.121", "unit": "µg/mL"}, {"measurement": "concentration at 0.5 hr", "setting": "[1]; [4]", "result": "0.365 ± 0.048", "unit": "µg/mL"}, {"measurement": "concentration at 1 hr", "setting": "[1]; [4]", "result": "0.175 ± 0.023", "unit": "µg/mL"}, {"measurement": "concentration at 2 hr", "setting": "[1]; [4]", "result": "0.0782 ± 0.0287", "unit": "µg/mL"}, {"measurement": "concentration at 4 hr", "setting": "[1]; [4]", "result": "0.0188 ± 0.0087", "unit": "µg/mL"}, {"measurement": "concentration at 7 hr", "setting": "[1]; [4]", "result": "0.00705 ± 0.00377", "unit": "µg/mL"}, {"measurement": "AUC(0-inf)", "setting": "[1]; SD, plasma, PO 10 mg/kg", "result": "1.78 ± 0.178", "unit": "µg·h/mL"}, {"measurement": "AUC(0-t)", "setting": "[1]; SD, plasma, PO 10 mg/kg", "result": "1.73 ± 0.17", "unit": "µg·h/mL"}, {"measurement": "Cmax", "setting": "[1]; SD, plasma, PO 10 mg/kg", "result": "0.281 ± 0.073", "unit": "µg/mL"}, {"measurement": "Tmax", "setting": "[1]; SD, plasma, PO 10 mg/kg", "result": 1, "unit": "h"}, {"measurement": "bioavailability", "setting": "[1]; SD, plasma, PO 10 mg/kg", "result": "73.6 ± 7.4", "unit": "%"}, {"measurement": "half-life", "setting": "[1]; SD, plasma, PO 10 mg/kg", "result": "3.17 ± 1.22", "unit": "h"}, {"measurement": "concentration at 0 hr", "setting": "[1]; [5]", "result": 0, "unit": "µg/mL"}, {"measurement": "concentration at 0.25 hr", "setting": "[1]; [5]", "result": "0.0832 ± 0.0299", "unit": "µg/mL"}, {"measurement": "concentration at 0.5 hr", "setting": "[1]; [5]", "result": "0.227 ± 0.058", "unit": "µg/mL"}, {"measurement": "concentration at 1 hr", "setting": "[1]; [5]", "result": "0.281 ± 0.073", "unit": "µg/mL"}, {"measurement": "concentration at 2 hr", "setting": "[1]; [5]", "result": "0.249 ± 0.074", "unit": "µg/mL"}, {"measurement": "concentration at 4 hr", "setting": "[1]; [5]", "result": "0.0777 ± 0.0073", "unit": "µg/mL"}, {"measurement": "concentration at 7 hr", "setting": "[1]; [5]", "result": "0.0726 ± 0.0255", "unit": "µg/mL"}, {"measurement": "concentration at 24 hr", "setting": "[1]; SD, plasma, PO 10 mg/kg, time point 24 hr, read-out: Plasma drug concentration", "result": "0.0142 ± 0.0197", "unit": "µg/mL"}, {"measurement": "Cl_obs", "setting": "[1]; IV 3 mg/kg", "result": "4.2 ± 0.57", "unit": "L/h/kg"}, {"measurement": "GI50", "setting": "[2]", "result": "0.05 to 0.5", "unit": "µM"}, {"measurement": "GI50", "setting": "Ba/F3-EGFR-VIII cells", "result": "≤ 0.005", "unit": "µM"}, {"measurement": "Kp at 2 hours", "setting": "[3]; SD, brain/blood, PO 10 mg/kg, 2 hours after administration, read-out: Brain/blood ratio", "result": 3.06}, {"measurement": "concentration at 2 hours", "setting": "[3]; SD, brain, PO 10 mg/kg, 2 hours after administration, read-out: Brain concentration", "result": 1470, "unit": "ng/g"}, {"measurement": "concentration at 2 hours", "setting": "[3]; SD, plasma, PO 10 mg/kg, 2 hours after administration, read-out: Plasma drug concentration", "result": 0.48, "unit": "µg/mL"}, {"measurement": "ability to penetrate the blood-brain barrier (in words)", "setting": "[3]", "result": "excellent ability to penetrate the blood-brain barrier"}]}]}
